Where two headings read alike, the source gives them in different places.
Target: T1, human GPR40 (Homo sapiens, UniProt O14842)
T1 construct: expressed in transfected cells
Test: Inositol Phosphate Turnover (IP1) Assay 2
Format: cell-based
Description: Human GPR40 stable cell-lines were generated in HEK cells. The expression plasmids were transfected using lipofectamine (Life Technologies) following manufacturer's instructions. Stable cell-lines were generated following drug selection and single cell cloning.
The assay is performed in 384-well format. HEK cells stably expressing human GPR40 are plated at 15,000 cells per well in growth medium (DMEM/10% fetal calf serum). Cell plates are then incubated 16 hours at 37 degrees in a 5% CO2 incubator.
Measurement of Inositol Phosphate Turnover (IP1) is performed using the CisBio IP-One kit (Part number 62IPAPEB). After the 16 hour incubation, the cells are washed with HEPES buffer and 10 ul of stimulation buffer (prepared as described in the kit) is added to each well. In a separate plate, compounds are diluted in DMSO (400-fold over the final concentration in the assay well) and 25 nl is acoustically transferred to the appropriate well in the assay cell plate. The plates are then incubated for 60 minutes at 37 degrees. 10 ul of detection buffer (also prepared as described in the IP-One kit) is added to each well and the plates are incubated for 60 minutes in the dark. The plates are then read in a Perkin Elmer EnVision or equivalent reader able to measure FRET. Fluorescent ratio of emission at 665 and 620 nm is then converted to IP1 concentration by back calculating from an IP1 standard curve prepared at the time of the assay.

[1] = HEK cells stably expressing human GPR40, 15,000 cells per well, CisBio IP-One kit, read-out: Human IP1 (nM), Inositol Phophate Turnover (IP1) Assay 2 EC50 values
[2] = HEK cells stably expressing human GPR40, read-out: EC50 values in the Inositol Phophate Turnover (IP1) Assay 2

T1 sequence (O14842 whole entry): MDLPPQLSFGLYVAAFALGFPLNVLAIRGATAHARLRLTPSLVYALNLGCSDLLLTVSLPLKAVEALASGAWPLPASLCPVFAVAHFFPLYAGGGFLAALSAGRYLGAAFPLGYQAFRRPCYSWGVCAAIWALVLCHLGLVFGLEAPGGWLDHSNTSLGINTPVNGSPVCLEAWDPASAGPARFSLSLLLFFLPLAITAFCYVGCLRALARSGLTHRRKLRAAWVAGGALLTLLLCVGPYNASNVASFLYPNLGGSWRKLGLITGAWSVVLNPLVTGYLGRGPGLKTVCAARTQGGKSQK

| EC50 [1] [nM] | EC50 [2] [nM] | SMILES |
| --- | --- | --- |
| 141 | < 6500 | C[C@H](C(=O)O)[C@H](c1ccc2c(c1)OC(C1CC3(C1)CN(c1ncccc1C(F)(F)F)C3)CC2)C1CC1 (single isomer, unassigned) [Example 1, (2S,3R)-3-cyclopropyl-2-methyl-3-((R or S)-2-(2-(3-(trifluoro-methyl)pyridin-2-yl)-2-azaspiro[3.3]heptan-6-yl)chroman-7-yl)propanoic Acid] |
| 156 |  | C[C@H](C(=O)O)[C@H](c1ccc2c(c1)OC(C1CC3(C1)CN(c1ncccc1C(F)(F)F)C3)CC2)C1CC1 (single isomer, unassigned) [Example 2, (2S,3R)-3-cyclopropyl-2-methyl-3-((R or S)-2-(2-(3-(trifluoromethyl)pyridin-2-yl)-2-azaspiro[3.3]heptan-6-yl)chroman-7-yl)propanoic Acid] |
| 38.5 | < 6500 | C[C@H](C(=O)O)[C@H](c1ccc2c(c1)OC(C1[C@@H]3COC[C@H]1CN(Cc1cc(C(F)(F)F)ccc1C(F)(F)F)C3)CC2)C1CC1 (stereo partly drawn) [Example 40, (2S,3R)-3-(2-((1R,5S)-7-(2,5-bis(trifluoromethyl)benzyl)-3-oxa-7-azabicyclo[3.3.1]nonan-9-yl)chroman-7-yl)-3-cyclopropyl-2-methylpropanoic acid] |
